In patent publication US12559529B2, “NPY2 receptor agonists” (Boehringer Ingelheim International GmbH, priority 2019, dated 2026):
*1 amine or outer side, *2 acyl side, *3 side chain or, on linkers, in order; H or OH if unused. Where a SMILES comes first, the peptide text is derived from it. Side-chain parts run from the residue outwards. The star is where a group is joined. C18 diacid = O=C(O)CCCCCCCCCCCCCCCCC(=O)*; γGlu = O=C(O)[C@H](CCC(=O)[*:2])N[*:1]; Isovaleryl = CC(C)CC(=O)*; AEEA = NCCOCCOCC(=O)O

target: T1, Human Neuropeptide Y2 Receptor (Homo sapiens, UniProt P49146); assay: Radioligand binding competition assay (RLB); conditions: Table 3; human 125I-PYY (1-36) 0.02 nM, Y2 receptor membranes; read-out: Ki
T1 construct: purchased CHEMICON HTS066M
T1 sequence (P49146 1-381): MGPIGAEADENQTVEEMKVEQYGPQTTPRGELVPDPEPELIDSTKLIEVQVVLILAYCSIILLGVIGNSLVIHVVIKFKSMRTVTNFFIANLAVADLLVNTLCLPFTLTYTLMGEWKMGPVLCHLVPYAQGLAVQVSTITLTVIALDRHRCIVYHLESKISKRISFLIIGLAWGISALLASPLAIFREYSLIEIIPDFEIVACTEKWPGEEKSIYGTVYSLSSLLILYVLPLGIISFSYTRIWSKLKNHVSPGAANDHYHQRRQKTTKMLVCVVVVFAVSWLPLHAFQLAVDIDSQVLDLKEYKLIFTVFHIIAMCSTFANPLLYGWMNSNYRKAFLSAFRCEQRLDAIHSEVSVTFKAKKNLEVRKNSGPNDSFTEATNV
Procedure, shortened: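 IC50 values come from nonlinear regression of sigmoidal dose-response curves of filter-bound radioactivity. Peptides competed with radioligand at human Y2 receptor membranes (0.5 μg protein/well) for 2 h at room temperature in pH 7.4 HEPES buffer containing Mg2+, Ca2+ and 0.2% ovalbumin.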

Row | SMILES | Ki
1 | CC(C)CC(=O)N[C@@H](C)C(=O)N1CCC[C@H]1C(=O)N[C@@H](CCC(=O)O)C(=O)N[C@@H](CCCCNC(=O)COCCOCCNC(=O)COCCOCCNC(=O)CC[C@H](NC(=O)CCCCCCCCCCCCCCCCC(=O)O)C(=O)O)C(=O)N1CCC[C@H]1C(=O)N[C@@H](CCC(=O)O)C(=O)N[C@@H](CCC(=O)O)C(=O)N[C@@H](CCC(=O)O)C(=O)N[C@@H](C)C(=O)N[C@@H](CO)C(=O)N1CCC[C@H]1C(=O)N[C@@H](CCC(=O)O)C(=O)N[C@@H](CCC(=O)O)C(=O)N[C@H](C(=O)N[C@@H](CCC(N)=O)C(=O)N[C@@H](CCCNC(=N)N)C(=O)N[C@@H](Cc1ccc(O)cc1)C(=O)N[C@@H](Cc1ccc(O)cc1)C(=O)N[C@H](C(=O)N[C@@H](CO)C(=O)N[C@@H](CC(C)C)C(=O)N[C@@H](CCCNC(=N)N)C(=O)N[C@@H](Cc1c[nH]cn1)C(=O)N[C@@H](Cc1ccc(O)cc1)C(=O)N[C@@H](Cc1ccc(O)cc1)C(=O)N[C@@H](CC(N)=O)C(=O)N[C@@H](Cc1c[nH]c2ccccc12)C(=O)N[C@@H](CC(C)C)C(=O)N[C@H](C(=O)N[C@@H](CCCNC(=N)N)C(=O)N[C@@H](CCC(N)=O)C(=O)N[C@@H](CCCNC(=N)N)C(=O)N[C@@H](Cc1ccc(O)cc1)C(N)=O)[C@@H](C)O)C(C)C)[C@@H](C)O [Compound 80, N{alpha-4}-(3-methylbutanoyl)-N{epsilon-7}-[2-(2-{2-[2-(2-{2-[(4S)-4-carboxy-4-(17-carboxyheptadecanamido)butanamido]ethoxy}ethoxy)acetamido]ethoxy}ethoxy)acetamido]-[4A,7K,9E,11E,17T,18Q,22V,28Y,30W,31L]hPYY (4-36)] | 6.96 nM
2 | CC(C)CC(=O)N[C@@H](C)C(=O)N1CCC[C@H]1C(=O)N[C@@H](CCC(=O)O)C(=O)N[C@@H](CCCCNC(=O)COCCOCCNC(=O)COCCOCCNC(=O)CC[C@H](NC(=O)CCCCCCCCCCCCCCCCC(=O)O)C(=O)O)C(=O)N1CCC[C@H]1C(=O)N[C@@H](CCC(=O)O)C(=O)N[C@@H](CCC(=O)O)C(=O)N[C@@H](CC(=O)O)C(=O)N[C@@H](C)C(=O)N[C@@H](CO)C(=O)N1CCC[C@H]1C(=O)N[C@@H](CCC(=O)O)C(=O)N[C@@H](CCC(=O)O)C(=O)N[C@@H](CC(C)C)C(=O)N[C@@H](CCC(N)=O)C(=O)N[C@@H](CCCNC(=N)N)C(=O)N[C@@H](Cc1ccc(O)cc1)C(=O)N[C@@H](C)C(=O)N[C@H](C(=O)N[C@@H](CO)C(=O)N[C@@H](CC(C)C)C(=O)N[C@@H](CCCNC(=N)N)C(=O)N[C@@H](Cc1c[nH]cn1)C(=O)N[C@@H](Cc1ccc(O)cc1)C(=O)N[C@@H](Cc1ccc(O)cc1)C(=O)N[C@@H](CC(N)=O)C(=O)N[C@@H](Cc1c[nH]c2ccccc12)C(=O)N[C@@H](CC(C)C)C(=O)N[C@H](C(=O)N[C@@H](CCCNC(=N)N)C(=O)N[C@@H](CCC(N)=O)C(=O)N[C@@H](CCCNC(=N)N)C(=O)N[C@@H](Cc1ccc(O)cc1)C(N)=O)[C@@H](C)O)C(C)C [Compound 85, N{alpha-4}-(3-methylbutanoyl)-N{epsilon-7}-[2-(2-{2-[2-(2-{2-[(4S)-4-carboxy-4-(17-carboxyheptadecanamido)butanamido]ethoxy}ethoxy)acetamido]ethoxy}ethoxy)acetamido]-[4A,7K,9E,18Q,21A,22V,28Y,30W,31L]hPYY (4-36)] | 1.56 nM

The remaining molecules from weak to strong by Ki, led by results:

Row | Ki | SMILES
3 | 6.17 nM | CC(C)CC(=O)N[C@@H](C)C(=O)N1CCC[C@H]1C(=O)N[C@@H](CCC(=O)O)C(=O)N[C@@H](CCCCNC(=O)COCCOCCNC(=O)COCCOCCNC(=O)CC[C@H](NC(=O)CCCCCCCCCCCCCCCCC(=O)O)C(=O)O)C(=O)N1CCC[C@H]1C(=O)N[C@@H](CCC(=O)O)C(=O)N[C@@H](CCC(=O)O)C(=O)N[C@@H](CC(=O)O)C(=O)N[C@@H](C)C(=O)N[C@@H](CO)C(=O)N[C@@H](CCC(=O)O)C(=O)N[C@@H](CCC(=O)O)C(=O)N[C@@H](CCC(=O)O)C(=O)N[C@@H](CC(C)C)C(=O)N[C@@H](CCC(N)=O)C(=O)N[C@@H](CCCNC(=N)N)C(=O)N[C@@H](Cc1ccc(O)cc1)C(=O)N[C@@H](Cc1ccc(O)cc1)C(=O)N[C@H](C(=O)N[C@@H](CCC(=O)O)C(=O)N[C@@H](CC(C)C)C(=O)N[C@@H](CCCNC(=N)N)C(=O)N[C@@H](Cc1c[nH]cn1)C(=O)N[C@@H](Cc1ccc(O)cc1)C(=O)N[C@@H](Cc1ccc(O)cc1)C(=O)N[C@@H](CC(N)=O)C(=O)N[C@@H](Cc1c[nH]c2ccccc12)C(=O)N[C@@H](CC(C)C)C(=O)N[C@H](C(=O)N[C@@H](CCCNC(=N)N)C(=O)N[C@@H](CCC(N)=O)C(=O)N[C@@H](CCCNC(=N)N)C(=O)N[C@@H](Cc1ccc(O)cc1)C(N)=O)[C@@H](C)O)C(C)C [Compound 77, N{alpha-4}-(3-methylbutanoyl)-N{epsilon-7}-[2-(2-{2-[2-(2-{2-[(4S)-4-carboxy-4-(17-carboxyheptadecanamido)butanamido]ethoxy}ethoxy)acetamido]ethoxy}ethoxy)acetamido]-[4A,7K,9E,14E,18Q,22V,23E,28Y,30W,31L]hPYY (4-36)]
4 | 5.22 nM | CC(C)CC(=O)N[C@@H](C)C(=O)N1CCC[C@H]1C(=O)N[C@@H](CCC(=O)O)C(=O)N[C@@H](CCCCNC(=O)COCCOCCNC(=O)COCCOCCNC(=O)CC[C@H](NC(=O)CCCCCCCCCCCCCCCCC(=O)O)C(=O)O)C(=O)N1CCC[C@H]1C(=O)N[C@@H](CCC(=O)O)C(=O)N[C@@H](CCC(=O)O)C(=O)N[C@@H](CCC(=O)O)C(=O)N[C@@H](C)C(=O)N[C@@H](CO)C(=O)N1CCC[C@H]1C(=O)N[C@@H](CO)C(=O)N[C@@H](CCC(=O)O)C(=O)N[C@@H](CC(C)C)C(=O)N[C@@H](CCC(N)=O)C(=O)N[C@@H](CCCNC(=N)N)C(=O)N[C@@H](Cc1ccc(O)cc1)C(=O)N[C@@H](Cc1ccc(O)cc1)C(=O)N[C@H](C(=O)N[C@@H](CO)C(=O)N[C@@H](CC(C)C)C(=O)N[C@@H](CCCNC(=N)N)C(=O)N[C@@H](Cc1c[nH]cn1)C(=O)N[C@@H](Cc1ccc(O)cc1)C(=O)N[C@@H](Cc1ccc(O)cc1)C(=O)N[C@@H](CC(N)=O)C(=O)N[C@@H](Cc1c[nH]c2ccccc12)C(=O)N[C@@H](CC(C)C)C(=O)N[C@H](C(=O)N[C@@H](CCCNC(=N)N)C(=O)N[C@@H](CCC(N)=O)C(=O)N[C@@H](CCCNC(=N)N)C(=O)N[C@@H](Cc1ccc(O)cc1)C(N)=O)[C@@H](C)O)C(C)C [Compound 71, N{alpha-4}-(3-methylbutanoyl)-N{epsilon-7}-[2-(2-{2-[2-(2-{2-[(4S)-4-carboxy-4-(17-carboxyheptadecanamido)butanamido]ethoxy}ethoxy)acetamido]ethoxy}ethoxy)acetamido]-[4A,7K,9E,11E,15S,18Q,22V,28Y,30W,31L]hPYY (4-36)] (Isovaleryl-APEK([AEEA-AEEA-γGlu-C18 diacid])PEEEASPSELQRYYVSLRHYYNWLTRQRY-NH2)
5 | 4.86 nM | CC(C)CC(=O)N[C@@H](C)C(=O)N1CCC[C@H]1C(=O)N[C@@H](CCC(=O)O)C(=O)N[C@@H](CCCCNC(=O)COCCOCCNC(=O)COCCOCCNC(=O)CC[C@H](NC(=O)CCCCCCCCCCCCCCCCC(=O)O)C(=O)O)C(=O)N1CCC[C@H]1C(=O)N[C@@H](CCC(=O)O)C(=O)N[C@@H](CCC(=O)O)C(=O)N[C@@H](C)C(=O)N[C@@H](C)C(=O)N[C@@H](CO)C(=O)N1CCC[C@H]1C(=O)N[C@@H](CCC(=O)O)C(=O)N[C@@H](CCC(=O)O)C(=O)N[C@@H](CC(C)C)C(=O)N[C@@H](CCC(N)=O)C(=O)N[C@@H](CCCNC(=N)N)C(=O)N[C@@H](Cc1ccc(O)cc1)C(=O)N[C@@H](CCC(=O)O)C(=O)N[C@H](C(=O)N[C@@H](CO)C(=O)N[C@@H](CC(C)C)C(=O)N[C@@H](CCCNC(=N)N)C(=O)N[C@@H](Cc1c[nH]cn1)C(=O)N[C@@H](Cc1ccc(O)cc1)C(=O)N[C@@H](Cc1ccc(O)cc1)C(=O)N[C@@H](CC(N)=O)C(=O)N[C@@H](Cc1c[nH]c2ccccc12)C(=O)N[C@@H](CC(C)C)C(=O)N[C@H](C(=O)N[C@@H](CCCNC(=N)N)C(=O)N[C@@H](CCC(N)=O)C(=O)N[C@@H](CCCNC(=N)N)C(=O)N[C@@H](Cc1ccc(O)cc1)C(N)=O)[C@@H](C)O)C(C)C [Compound 70, N{alpha-4}-(3-methylbutanoyl)-N{epsilon-7}-[2-(2-{2-[2-(2-{2-[(4S)-4-carboxy-4-(17-carboxyheptadecanamido)butanamido]ethoxy}ethoxy)acetamido]ethoxy}ethoxy)acetamido]-[4A,7K,9E,11A,18Q,21E,22V,28Y,30W,31L]hPYY (4-36)] (Isovaleryl-APEK([AEEA-AEEA-γGlu-C18 diacid])PEEAASPEELQRYEVSLRHYYNWLTRQRY-NH2)
